Measured values taken from US8138206B2, “Piperidine derivative” (MSD. K.K., priority 2005, dated 2012).
Structures can show the parent of a compound that is named as a salt. Where two headings read alike, the source gives them in different places.

Assays:
[1] = molecular target: T1, human histamine-H3 receptor (Homo sapiens, UniProt Q9Y5N1); experiment: Histamine analogue-binding inhibition test; conditions: 50% inhibitory concentration to specific [3H]N-α-methylhistamine binding; membrane specimen of cells expressing histamine-H3 receptor; 25° C., 2 hours
T1 construct: expressed in transfected cells; host or cells: HEK293 and CHO-K1 (membrane specimen)
Excerpt: A cDNA sequence coding for a human histamine-H3 receptor (see WO00/39164) was cloned with expression vectors pCR2.1, pEF1x (by Invitrogen) and pCI-neo (by Promega). The resulting expression vector was transfected into host cells, HEK293 and CHO-K1 (American Type Culture Collection), according to a cationic lipid process [see Proceedings of the National Academy of Sciences of the United States of America, Vol., 84, p. 7413 (1987)] to obtain histamine-H3 receptor expression cells.
A membrane specimen prepared from the cells having expressed a histamine-H3 receptor was incubated in an assay buffer (50 mM Tris buffer, pH 7.4) along with a test compound and 20,000 cpm [^3H]N-α-methylhistamine (by NEN) therein, at 25° C. for 2 hours, and then filtered through a glass filter GF/C. After washed with 50 mM Tris buffer (pH 7.4), the radioactivity on the glass filter was determined. The non-specific binding was determined in the presence of 10 μM thioperamide (by SIGAM), and the 50% inhibitory concentration (IC50) of the test compound to the specific N-alpha-methylhistamine binding was calculated [Molecular Pharmacology, Vol. 55, p. 1101 (1999)].

histamine-H3 receptor = molecular target: T2, histamine-H3 receptor (Rattus norvegicus, UniProt Q9QYN8); experiment: Test for antagonistic effect to water-drinking action induced by histamine-H3 receptor selective agonist, R-α-methylhistamine; format: in vivo; conditions: male SD rat; 30 mg/kg orally 2 hours before R-α-methylhistamine; water drunk for 1 hour
T2 construct: from tissue; host or cells: living male SD rat (brain, third ventricle administration of the agonist)
Experimental: Under anesthesia with ketamine xylazine (74 and 11 mg/kg intraabdominal single administration), a brain stereotaxic device was set in the third ventricle of a male SD rat (7 to 10-week age, […]), and a chronic guide cannula (26 gauge, length 11 mm) was inserted into it and fixed with a dental resin. The position of the tip of the guide cannula is at 2.2 mm after the bregrna on the midline, and at a depth of 8 mm from the surface of the skull. After a restoration term of about 1 week, R-α-methylhistamine (0.3 μg/l μL/head, 30% propylene glycol liquid) was administered into the third ventricle. A test compound (compound of Example 3-8) suspended in an aqueous 0.5% methyl cellulose solution was orally administered to the rat before 2 hours before the R-α-methylhistamine administration; and after the R-α-methylhistamine administration, the amount of water drunk by the rat for 1 hour was measured.

[2] = Test for brain/cerebrospinal fluid transition; format: in vivo; conditions: SD male rat, 2 hours after the oral administration (10 mg/kg)
Excerpt: A test compound (compound of Example 3-8) was orally or intravenously administered to an SD male rat (7 to 10-week age, 200 to 400 g), and under anesthesia with ether for a predetermined period of time, the whole blood was collected from it through the abdominal aorta thereof using a heparin-processed syringe. Next, the head skin was cut, and a dental 30 G needle was stuck into the cervical spine to run through the subarachnoid cavity. Via a tube connected to the dental 30 G needle, from 50 to 100 μl of the cerebrospinal fluid was collected in a 1-mL syringe, and then the brain was taken out. The blood sample was centrifuged (4° C., 6000 revolutions, 10 minutes), and the resulting plasma was stirred with ethanol (containing an internal standard substance) in an amount of three times thereof added to it. The brain sample was homogenized with 2 mL of water added thereto; and a part of it was taken out and stirred with ethanol (containing an internal standard substance) in an amount of three times thereof added to it. The cerebrospinal fluid was stirred with ethanol (containing an internal standard substance) in an amount of three times thereof added to it. The above samples were left at −20° C. for 20 minutes, then centrifuged (4° C., 12,000 g, 10 minutes), and the supernatant was analyzed through LC/MS/MS. According to a relative calibration curve method, the compound concentration in the plasma, in the brain and in the cerebrospinal fluid was determined. As a result, the test compound concentration in the brain was 0.99 nmol/g, that in the cerebrospinal fluid was 0.074 μM and that in the plasma was 0.6 μM, after 2 hours after the oral administration (10 mg/kg).

T1 sequence (Q9Y5N1 whole entry): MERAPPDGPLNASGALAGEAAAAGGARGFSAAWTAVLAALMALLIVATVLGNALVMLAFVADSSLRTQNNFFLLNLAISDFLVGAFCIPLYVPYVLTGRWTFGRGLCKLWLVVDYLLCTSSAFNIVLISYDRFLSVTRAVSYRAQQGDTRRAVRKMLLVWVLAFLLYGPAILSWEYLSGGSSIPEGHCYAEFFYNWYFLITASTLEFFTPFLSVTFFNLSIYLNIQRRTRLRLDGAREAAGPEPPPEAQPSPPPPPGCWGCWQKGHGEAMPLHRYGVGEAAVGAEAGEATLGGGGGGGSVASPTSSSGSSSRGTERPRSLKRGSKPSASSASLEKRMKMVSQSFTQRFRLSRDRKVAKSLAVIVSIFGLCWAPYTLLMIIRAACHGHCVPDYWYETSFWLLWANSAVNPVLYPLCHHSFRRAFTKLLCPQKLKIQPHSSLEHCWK
T2 sequence (Q9QYN8 whole entry): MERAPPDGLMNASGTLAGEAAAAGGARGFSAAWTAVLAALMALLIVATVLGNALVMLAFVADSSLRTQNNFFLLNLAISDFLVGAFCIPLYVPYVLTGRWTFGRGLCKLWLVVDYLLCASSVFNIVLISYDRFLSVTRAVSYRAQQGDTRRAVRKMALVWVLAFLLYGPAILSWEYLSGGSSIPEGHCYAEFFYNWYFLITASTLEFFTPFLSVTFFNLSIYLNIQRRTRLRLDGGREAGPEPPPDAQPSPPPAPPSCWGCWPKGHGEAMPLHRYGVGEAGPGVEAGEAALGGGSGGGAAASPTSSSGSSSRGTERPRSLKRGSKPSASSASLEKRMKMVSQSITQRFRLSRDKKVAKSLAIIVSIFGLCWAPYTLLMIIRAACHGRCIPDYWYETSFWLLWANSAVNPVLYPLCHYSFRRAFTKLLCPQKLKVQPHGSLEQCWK

SMILES	IC50 [1] [pM]	also measured
COc1ccc(C2(O)CCN(c3ccc(OCCCN4CCCCC4)cc3)CC2)cc1 [Example 2-6, 4-(4-methoxyphenyl)-1-[4-(3-piperidin-1-ylpropoxy)phenyl]piperidin-4-ol trifluoroacetate]	3000	
O=C1COC2(CCN(c3ccc(OCCCN4CCCCC4)cc3)CC2)CN1c1ccccc1 [Example 3-8, 4-phenyl-9-[4-(3-piperidin-1-ylpropoxy)phenyl]-1-oxa-4,9-diazaspiro[5,5]undecan-3-one]	4200	increase in the water drinking induced by the administration of R-α-methylhistamine in the third ventricle (histamine-H3 receptor): significantly inhibited; test compound concentration in the brain [2]: 0.99 nmol/g; concentration at 2 h ([2]; cerebrospinal fluid, read-out: test compound concentration in the cerebrospinal fluid): 74 nM; concentration at 2 h ([2]; plasma, read-out: test compound concentration in the plasma): 600 nM
COc1ncc(N2CC3(CCN(c4ccc(OCCCN5CCCCC5)cc4)CC3)OCC2=O)cn1 [Example 3-15, 4-(2-methoxypyrimidin-5-yl)-9-[4-(3-piperidin-1-ylpropoxy)phenyl]-1-oxa-4,9-diazaspiro[5,5]undecan-3-one]	220	
O=C1OC2(CCN(c3ccc(OCCCN4CCCCC4)cc3)CC2)CN1c1ccncc1 [Example 3-42, 8-[4-(3-piperidin-1-ylpropoxy)phenyl]-3-(pyridin-4-yl)-1-oxa-3,8-diazaspiro[4,5]decan-2-one]	940	
C[C@@H]1CCCN1CCCOc1ccc(N2CCC3(CC2)CN(c2ccc(S(C)(=O)=O)cc2)C(=O)CO3)cc1 [Example 3-79, 9-(4-{3-[(2R)-2-methylpyrrolidin-1-yl]propoxy}phenyl)-4-[4-(methylsulfonyl)phenyl]-1-oxa-4,9-diazaspiro[5,5]undecan-3-one]	190	
C[C@H]1CCCN1CCCOc1ccc(N2CCC3(CC2)CN(c2cnn(C)c2)C(=O)CO3)cc1 [Example 3-95, 4-(1-methyl-1H-pyrazol-4-yl)-9-(4-{3-[(2S)-2-methylpyrrolidin-1-yl]propoxy}phenyl)-1-oxa-4,9-diazaspiro[5,5]undecan-3-one]	1200	
CCN1CC2(CCN(c3ccc(OCCCN4CCC[C@H]4C)cc3)CC2)OC1=O [Example 3-96, 3-ethyl-8-(4-{3-[(2R)-2-methylpyrrolidin-1-yl]propoxy}phenyl)-1-oxa-3,8-diazaspiro[4,5]decan-2-one]	410	
COc1ccc(N2CC3(CCN(c4ccc(OC5CCN(C6CCC6)CC5)cc4)CC3)OCC2=O)cc1 [Example 3-107, 9-{4-[(1-cyclobutylpiperidin-4-yl)oxy]phenyl}-4-(4-methoxyphenyl)-1-oxa-4,9-diazaspiro[5,5]undecan-3-one]	180	
CC(C)N1CCC(Oc2ccc(N3CCC4(CC3)CN(c3cnccn3)C(=O)CO4)cc2)CC1 [Example 3-138, 9-{4-[(1-isopropylpiperidin-4-yl)oxy]phenyl}-4-pyrazin-2-yl-1-oxa-4,9-diazaspiro[5,5]undecan-3-one]	1080	
O=C1COC2(CCN(c3ccc(OC4CCN(C5CCC5)CC4)nc3)CC2)CN1c1cccnc1 [Example 3-150, 9-{6-[(1-cyclobutylpiperidin-4-yl)oxy]pyridin-3-yl}-4-pyridin-3-yl-1-oxa-4,9-diazaspiro[5,5]undecan-3-one]	660	
COc1ccc(N2CC3(CCN(c4ccc(OC5CCN(C6CCC6)CC5)cc4)CC3)OC2=O)cn1 [Example 3-168, 8-{4-[(1-cyclobutylpiperidin-4-yl)oxy]phenyl}-3-(6-methoxypyridin-3-yl)-1-oxa-3,8-diazaspiro[4,5]decan-2-one]	90	
C[C@H]1CCCN(CCCOc2ccc(N3CCC4(CC3)CN(C3CCCC3)C(=O)CO4)cc2)C1 [Example 4-17, 4-cyclopentyl-9-(4-{3-[(3S)-3-methylpiperidin-1-yl]propoxy}phenyl)-1-oxa-4,9-diazaspiro[5,5]undecan-3-one]	1200	
